Assay results taken from patent publication US9150505B2, “Prophylactic or therapeutic agent for diabetes or obesity” (AJINOMOTO CO., INC., priority 2010, dated 2015).

Experiments:
[1] = tested on: NCI-H716 cells; experiment: Promotion of GLP-1 secretion in NCI-H716 cells; format: cell-based, human; conditions: 10 mM, 30 minutes at 37° C., buffer assumed to be 1.0
Protocol: Human appendix-derived cell line NCI-H716 (ATCC No CCL-251) was cultured in a 10% FBS-containing DMEM/HamF-12 medium at 37° C. in the presence of 5% CO2. NCI-H716 cells were seeded in a poly-D-lysine-coated 96-well plate at 100,000 cells/well and cultured for two days. Prior to sample addition, wells were washed with Hepes buffer (20 mM Hepes, 146 mM NaCl, 5 mM KCl, 1.5 mM CaCl2, 1 mM MgSO4, 5.5 mM D-glucose, 0.2% BSA, pH 7.4). Fifty μl of a sample solution dissolved in the same buffer was added and incubated at 37° C. for 30 minutes. The above-described compounds in Example 6 (Compound 1) (10 mM), Example 48 (Compound 2) (5 mM) and Example 14 (Compound 3) (2 mM) were used as the samples. In addition, a Hepes buffer was used as a control. After collecting the supernatant, the cells were precipitated by centrifugation (5,000×g, 1 min.) to collect the supernatant thereof. GLP-1 level in the supernatant was determined as described below according to a quantitative method for GLP-1 that uses GLP-1 receptor gene expression cells.
According to a routine method (Lopez de Maturana R, Willshaw A, Kuntzsch A, Rudolph R, Donnelly D. J Biol Chem. 2003 Mar. 21; 278 (12):10195-200), human GLP-1 receptor gene (Nucleotide sequence 1) was integrated into pcDNA3.1 to prepare human GLP-1 receptor gene expression plasmid hGLP-1R/pcDNA3.1. Moreover, chimeric gene (Nucleotide sequence 2) of human Gα15 gene and human gustducin gene was integrated into pcDNA3.1 to prepare G protein expression plasmid Gα15-gust/pcDNA3.1. […] After 24 hours of cultivation in a CO2 incubator, changes in the fluorescence intensity were determined starting immediately after sample addition according to the Ca^2+ fluorescence indicator FLIPR Calcium 4 Assay Kit protocol (Molecular Devices) using FlexStation (Molecular Devices). Concentration dependency of human GLP-1 (7-36 Amide; Peptide Institute) with respect to the changes in the fluorescence intensity was determined and used as a standard curve for quantitating the sample. […]

[2] = tested on: NCI-H716 cells; experiment: Promotion of CCK secretion in NCI-H716 cells; format: cell-based, human
Protocol: Human appendix-derived cell line NCI-H716 (ATCC No CCL-251) was cultured in a 10% FBS-containing DMEM/HamF-12 medium at 37° C. in the presence of 5% CO2. NCI-H716 cells were seeded in a poly-D-lysine-coated 24-well plate at 600,000 cells/well and cultured for two days. Prior to sample addition, wells were washed with Hepes buffer (20 mM Hepes, 146 mM NaCl, 5 mM KCl, 1.5 mM CaCl2, 1 mM MgSO4, 5.5 mM D-glucose, 0.02% BSA, pH 7.4). 300 μl of a sample solution dissolved in the same buffer was added and incubated at 37° C. for 30 minutes. Compound 1 in Example 6 (2 mM) and Compound 2 in Example 48 (1 mM) were used as the samples. In addition, a Hepes buffer was used as a control. After collecting the supernatant, the cells were precipitated by centrifugation (5,000×g, 1 min.) to collect the supernatant thereof, which was lyophilized in Speed Vac Concentrator (SAVANT) and dissolved by addition of 60 μl of water. CCK level in the solution was determined using Enzyme immuno assay kit (EK-069-04; PHENOIX PHARMACEUTICALS).

N[C@@H](CNC(=O)Nc1cc(Cl)cc(S(=O)(=O)O)c1O)C(=O)O [Example 6, (2S)-2-amino-3-{[(5-chloro-2-hydroxy-3-sulfophenyl)carbamoyl]amino}propanoic acid]
Relative secretion volumes (GLP-1) [1]: 2.16
Relative secretion volumes (CCK) ([2]; 2 mM, 30 minutes at 37° C., buffer assumed to be 1.0): 4.89
effect of promoting CCK secretion ([2]; result in words): confirmed to have an effect of promoting CCK secretion
